The target in one test is T1, Human MAT2A (Homo sapiens, UniProt P31153).
T1 construct: Human MAT2A: Cepter, amino acids 1-395 Clone ID 334, lot 00023-148; purchased Cepter clone ID 334, lot 00023-148
T1 sequence (P31153 whole entry, the tested form may be a part): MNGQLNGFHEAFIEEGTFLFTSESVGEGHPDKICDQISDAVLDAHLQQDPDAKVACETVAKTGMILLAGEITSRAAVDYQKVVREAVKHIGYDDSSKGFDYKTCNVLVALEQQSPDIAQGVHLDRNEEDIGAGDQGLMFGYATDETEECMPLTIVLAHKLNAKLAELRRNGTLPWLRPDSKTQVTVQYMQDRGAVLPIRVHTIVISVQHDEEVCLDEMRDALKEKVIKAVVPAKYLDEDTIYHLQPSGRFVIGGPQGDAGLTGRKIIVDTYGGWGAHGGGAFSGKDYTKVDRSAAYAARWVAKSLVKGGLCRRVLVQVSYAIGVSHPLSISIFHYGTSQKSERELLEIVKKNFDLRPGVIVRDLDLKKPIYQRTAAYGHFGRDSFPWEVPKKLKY
Kind of test: Phosphate Sensor Fluorescence Assay (Biologic Example A). To be noted: MAT2A inhibition, Biological Example A procedure (Compounds 1.001-1.028); 500 uM L-methionine, 500 uM ATP. The test is classed as biochemical. The protocol: (§1) The ability of the compound of present disclosure to inhibit MAT2A enzyme was determined using a Phosphate Sensor Fluorescence Assay described below.
Biologic Example A. Phosphate Sensor Fluorescence Assay
(§2) MAT2A enzyme is incubated with a test compound in DMSO or DMSO and its substrates (L-methionine and ATP) in a microtiter plate. The enzymatic reaction is stopped by the addition of Working Phosphate Sensor Mixture. The plate is analyzed for fluorescence at 450 nm. The high control (DMSO with enzyme and its substrates) gives high fluorescence which represents no inhibition of enzymatic activity while the low control (DMSO with MAT2A substrates and no enzyme) gives low fluorescence which represents full inhibition of enzymatic activity.
• Human MAT2A: Cepter, amino acids 1-395 • Tris, pH 7.5: Invitrogen cat #15567-027 • KCl: Ambion cat #AM9640G • MgCl2: Ambion cat #AM9530G • Brij-35: Sigma cat B4184-10ML • DTT: Goldbio cat #DTT100 • BGG: Sigma cat #G5009-25G • PNP: Novus Biologicals cat #NBP1-50872 • 7-MEG: Cayman Chemical cat #15988 • L-Methionine: Alfa Aesar cat #J61904 • ATP: Alfa Aesar cat #J60336 • Phosphate Sensor: Thermo Fisher cat #PV4407 • EDTA: Life Tech cat #15575-038 • Assay plate: 384-well black polypropylene plate: Thomas Scientific cat #1149Q35
• Assay Buffer: 50 mM Tris, pH 7.5/50 mM KCl/10 mM MgCl2/0.01% Brij-35/1 mM DTT/0.1% BGG/40 nM PNP/6 uM 7-MEG • MAT2A: 10 nM for Cepter clone ID 329, lot 00023-123 before the addition of Working Phosphate Sensor Mixture • 5 nM for Cepter clone ID 334, lot 00023-148 before the addition of Working Phosphate Sensor Mixture • L-methionine: 500 uM before the addition of Working Phosphate Sensor Mixture • ATP: 500 uM before the addition of Working Phosphate Sensor Mixture
(§3) For the assay, a mixture of 1 mM L-methionine/1 mM ATP (2× final pre-stopped concentration) in assay buffer; MAT2A (2× final pre-stopped concentration) in Assay Buffer and Working Phosphate Sensor Mixture (1.5 uM Phosphate Sensor/30 mM EDTA in Assay Buffer, which is 3× final concentrations) were prepared. Test compounds or DMSO were added to the appropriate well suing D300e digital dispenser. 5 μl/well of Assay Buffer was added to the wells corresponding to the negative control and 5 μl/well of MAT2A was added to all the wells except for those corresponding to the negative control. After incubating the plate at room temperature for 15 minutes, 5 μl/well of the 1 mM L-methionine/1 mM ATP mixture was added to all wells. The plate was centrifuged at 1000 rpm for 1 minute and then incubated at room temperature for 1 hour. 5 μl of the Working Phosphate Sensor Mixture was added to all wells and the plate was centrifuged at 1000 rpm for 1 minute. The plate was read for fluorescence at 450 nm after exciting at 430 nm.
(§4) Percent inhibition was calculated in Chemical and Biological Information System (CBIS), (ChemInnovation Software Inc.). Curves were fitted by CBIS as % inhibition vs. log [compound concentration] using a 4-parameter inhibition model.
(§5) Fit=(A+((B−A)/(1+((C/x)^D))))
(§6) Compounds 1.001-1.028 were tested using the procedure described in Bioogical Example A, described above. Compounds 1.029-1.070 were tested using the procedure described in Biological Example B, described above.
As to `CC(c1c[nH]cn1)n1c(=O)nc(N2CC[C@@H](O)C2)c2ccc(C(F)(F)F)cc21` (mixture of isomers) [1.012, 1-(1-(1H-imidazol-4-yl)ethyl)-4-((R)-3-hydroxypyrrolidin-1-yl)-7-(trifluoromethyl)quinazolin-2(1H)-one], the IC50 (in general, the point on the concentration scale where inhibition reaches its midpoint) lay in the range of 10 to 200 nM.
Same read-out and setting: as for `CC(c1c[nH]cn1)n1c(=O)nc(N2CC[C@H](O)C2)c2ccc(C(F)(F)F)cc21` (mixture of isomers) [1.019, 1-(1-(1H-imidazol-4-yl)ethyl)-4-((S)-3-hydroxypyrrolidin-1-yl)-7-(trifluoromethyl)quinazolin-2(1H)-one], the figure is 200 to 500 nM; as for `CC(c1c[nH]cn1)n1c(=O)nc(N2CC[C@@H](CO)C2)c2ccc(C(F)(F)F)cc21` (mixture of isomers) [1.020, 1-(1-(1H-imidazol-4-yl)ethyl)-4-((R)-3-(hydroxymethyl)pyrrolidin-1-yl)-7-(trifluoromethyl)quinazolin-2(1H)-one], 200 to 500 nM; as for `CNc1nc(=O)n(C(C)c2c[nH]cn2)c2cc(C(F)(F)F)ccc12` (racemic) [1.007, 1-(1-(1H-imidazol-4-yl)ethyl)-4-(methylamino)-7-(trifluoromethyl)quinazolin-2(1H)-one], 10 to 200 nM.
The same measure, in the same setting: as for `CNc1nc(=O)n([C@H](C)c2c[nH]cn2)c2cc(C(F)(F)F)ccc12` (single isomer, unassigned) [1.008], the figure is 10 to 200 nM; as for `CNc1nc(=O)n([C@@H](C)c2c[nH]cn2)c2cc(C(F)(F)F)ccc12` (single isomer, unassigned) [1.009], 10 to 200 nM.
`C[C@H](c1c[nH]cn1)n1c(=O)nc(N2CC[C@@H](O)C2)c2ccc(C(F)(F)F)cc21` (single isomer, unassigned) [1.013] displayed an IC50 of 10 to 200 nM.
`C[C@@H](c1c[nH]cn1)n1c(=O)nc(N2CC[C@@H](O)C2)c2ccc(C(F)(F)F)cc21` (single isomer, unassigned) [1.014] returned an IC50 of 10 to 200 nM.
Still for that read-out and setting: as for `C[C@H](c1c[nH]cn1)n1c(=O)nc(N(C)C)c2ccc(C(F)(F)F)cc21` (single isomer, unassigned) [1.016], the figure is 10 to 200 nM; as for `C[C@@H](c1c[nH]cn1)n1c(=O)nc(N(C)C)c2ccc(C(F)(F)F)cc21` (single isomer, unassigned) [1.017], 10 to 200 nM; as for `CO[C@H]1CCN(c2nc(=O)n([C@H](C)c3c[nH]cn3)c3cc(C(F)(F)F)ccc23)C1` (single isomer, unassigned) [1.021], 200 to 500 nM.
The molecule `CO[C@H]1CCN(c2nc(=O)n([C@@H](C)c3c[nH]cn3)c3cc(C(F)(F)F)ccc23)C1` (single isomer, unassigned) [1.022] displayed an IC50 of 1000 to 10000 nM.
On the same count and under the same terms, as for `C[C@H](c1c[nH]cn1)n1c(=O)nc(N2CCCC2)c2ccc(C(F)(F)F)cc21` (single isomer, unassigned) [1.023], the figure is 10 to 200 nM.
Still for that read-out and setting: in the case of `C[C@@H](c1c[nH]cn1)n1c(=O)nc(N2CCCC2)c2ccc(C(F)(F)F)cc21` (single isomer, unassigned) [1.024] it was 10 to 200 nM; in that of `CO[C@@H]1CCN(c2nc(=O)n([C@H](C)c3c[nH]cn3)c3cc(C(F)(F)F)ccc23)C1` (single isomer, unassigned) [1.025], 10 to 200 nM.
Same read-out and setting: in the case of `CO[C@@H]1CCN(c2nc(=O)n([C@@H](C)c3c[nH]cn3)c3cc(C(F)(F)F)ccc23)C1` (single isomer, unassigned) [1.026] it was 200 to 500 nM; in that of `C[C@H](c1c[nH]cn1)n1c(=O)nc(N2CCC2)c2ccc(C(F)(F)F)cc21` (single isomer, unassigned) [1.027], 200 to 500 nM.
As to `C[C@@H](c1c[nH]cn1)n1c(=O)nc(N2CCC2)c2ccc(C(F)(F)F)cc21` (single isomer, unassigned) [1.028], the IC50 is 10 to 200 nM.
Same read-out and setting: as for `CNc1nc(=O)n(Cc2c[nH]cn2)c2cc(Cl)ccc12` [1.001, 1-((1H-imidazol-4-yl)methyl)-7-chloro-4-(methylamino)quinazolin-2(1H)-one], the figure is 10 to 200 nM.
On the same count and under the same terms, as for `CNc1nc(=O)n([C@H](C)c2cscn2)c2cc(C(F)(F)F)ccc12` [1.002, (R)-4-(methylamino)-1-(1-(thiazol-4-yl)ethyl)-7-(trifluoromethyl)quinazolin-2(1H)-one], the figure is 500 to 1000 nM.
On the same count and under the same terms, as for `CNc1nc(=O)n(Cc2c[nH]cn2)c2cc(C(F)(F)F)ccc12` [1.003, 1-((1H-imidazol-4-yl)methyl)-4-(methylamino)-7-(trifluoromethyl)quinazolin-2(1H)-one], the figure is 10 to 200 nM.

Another test has as its target T1, Human MAT2A. Kind of test: Phosphate Sensor Fluorescence Assay (Biologic Example B). It counts as biochemical. Particulars: MAT2A inhibition, Biological Example B procedure (Compounds 1.029-1.070); 5.8 nM MAT2A, 500 uM L-methionine, 500 uM ATP. The protocol: as §1
Biologic Example B. Phosphate Sensor Fluorescence Assay
as §2
• Human MAT2A: Cepter, amino acids 1-395 Clone ID 334, lot 00023-148 • Tris, pH 7.5: Invitrogen cat #15567-027 • KCl: Ambion cat #AM9640G • MgCl2: Ambion cat #AM9530G • Brij-35: Sigma cat B4184-10ML • DTT: Goldbio cat #DTT100 • BGG: Sigma cat #G5009-25G • PNP: Novus Biologicals cat #NBP1-50872 • 7-MEG: Cayman Chemical cat #15988 • L-Methionine: JTBaker P/N 2085-05 • ATP: Promega P/N V915B • Phosphate Sensor: Invitrogen cat #PV4407 • EDTA: Life Tech cat #15575-038 • Assay plate: 384-well black polypropylene plate: Corning P/N 3573
• Assay Buffer: 50 mM Tris, pH 7.5/50 mM KCl/10 mM MgCl2/0.01% Brij-35/1 mM DTT/0.01% BGG/40 nM PNP/6 uM 7-MEG • MAT2A: 5.8 nM MAT2A (1-395), Cepter, clone ID 334, lot 00023-148 before the addition of Working Phosphate Sensor Mixture • L-methionine: 500 uM before the addition of Working Phosphate Sensor Mixture • ATP: 500 uM before the addition of Working Phosphate Sensor Mixture
as §3, with “using a Beckman Coulter Echo 550 acoustic liquid handler. 10 μL/well” for “suing D300e digital dispenser. 5 μl/well”, “10 μL/well” for “5 μl/well”, “10 μL” for “5 μl”, “nm on a Tecan Spark microplate reader.” for “nm.”
as §4, §5, §6
`CN(C)c1nc(=O)n(CC2CNC(=O)C2)c2cc(C(F)(F)F)ccc12` (stereo not drawn) [1.057, 4-(Dimethylamino)-1-((5-oxopyrrolidin-3-yl)methyl)-7-(trifluoromethyl)quinazolin-2(1H)-one] gave an IC50 of 500 to 1000 nM.
On to `CN(C)c1nc(=O)n(Cc2cn(C)cn2)c2cc(C(F)(F)F)ccc12` [1.058, 4-(Dimethylamino)-1-((1-methyl-1H-imidazol-4-yl)methyl)-7-(trifluoromethyl)quinazolin-2(1H)-one], for which the IC50 lay within 1000 to 10000 nM.
Still for that read-out and setting: in the case of `CNc1nc(=O)n(Cc2cnco2)c2cc(C(F)(F)F)ccc12` [1.065, 4-(Methylamino)-1-(oxazol-5-ylmethyl)-7-(trifluoromethyl)quinazolin-2(1H)-one] it was 500 to 1000 nM.
On the same count and under the same terms, in the case of `CNc1nc(=O)n(Cc2cocn2)c2cc(C(F)(F)F)ccc12` [1.066, 4-(Methylamino)-1-(oxazol-4-ylmethyl)-7-(trifluoromethyl)quinazolin-2(1H)-one] it was 10 to 200 nM; in that of `CNc1nc(=O)n(Cc2cscn2)c2cc(C(F)(F)F)ccc12` [1.067, 4-(Methylamino)-1-(thiazol-4-ylmethyl)-7-(trifluoromethyl)quinazolin-2(1H)-one], 1000 to 10000 nM.
Still for that read-out and setting: as for `CNc1nc(=O)n(Cc2cncs2)c2cc(C(F)(F)F)ccc12` [1.068, 4-(Methylamino)-1-(thiazol-5-ylmethyl)-7-(trifluoromethyl)quinazolin-2(1H)-one], the figure is 500 to 1000 nM.
